According to patent US9572783B1, “Use of xanthophylls for the treatment of cancers” (priority 2015, dated 2017):

Key:
Assay type in all cases: cell-based
Human U87MG cell line [1] = assay: MTT assay of U87MG cell viability; conditions: DMSO or different concentrations of astaxanthin
Procedure: (§1) Cells were washed with PBS after the treatment, followed by addition of 1 ml MTT (3-(4,5-cimethylthiazol-2-yl)-2,5-diphenyl tetrazolium bromide) solution (2 mg/ml in PBS) in each well. After incubation for 3 hours at 37° C., 2 ml of DMSO was added and cells were incubated in the dark for 30 minutes. Absorbance was measured at the wavelength of 570 nm (OD570).
(§2) Human U87MG (ATCC, ATCC® HTB-14™) cell line was grown in DMEM medium supplemented with 10% fetal bovine serum at 37° C. in a humidified atmosphere at 5% CO2. M059K (ATCC, ATCC® CRL-2365™) and M059J (ATCC, ATCC® CRL-2366™) cell lines were grown in Dulbecco's modified Eagle medium (DMEM)-F12 supplemented with 10% fetal bovine serum at 37° C. in a humidified atmosphere at 5% CO2.
(§3) Astaxanthin was dissolved in dimethyl sulfoxide (DMSO) at concentration of 20 mM as stock solution.
(§4) The U87MG, M059K, and M059J cell lines were treated with DMSO or 100, 200 or 400 μM of astaxanthin for 24 hours or 48 hours and cell numbers were counted.

Human U87MG cell line [2] = assay: U87MG cell number count after astaxanthin treatment; conditions: 100, 200 or 400 μM astaxanthin, 24 hours or 48 hours
Procedure: as §2, §3, §4

M059K cell line = assay: M059K cell number count after astaxanthin treatment; conditions: 100, 200 or 400 μM astaxanthin, 24 hours or 48 hours
Procedure: as §2, §3, §4

[3] = test system: Mouse adrenocortical Y1 cell line; assay: Y1 cell number count after astaxanthin treatment (growth curve); conditions: 40 μM astaxanthin, 1, 2 or 3 days of treatment
Procedure: (§5) Mouse adrenocortical Y1 cell line (ATCC, ATCC® CCL-79™) was grown in Dulbecco's modified Eagle medium (DMEM)-F12 supplemented with 10% fetal bovine serum at 37° C. in a humidified atmosphere at 5% CO2.
(§6) Astaxanthin (Model NO: ATP-9601A; Yuan Yu Bio-Tech (Taiwan), Co., Ltd) was dissolved in dimethyl sulfoxide (DMSO) at concentration of 20 mM as stock solution.
(§7) The Y1 cells were incubated with DMSO or 40 μM of astaxanthin for 1, 2 or 3 days before analysis.

Human U2OS cell line = assay: U2OS cell number count after astaxanthin treatment; conditions: 100, 200 or 400 μM astaxanthin, 72 hours
Procedure: Human U2OS (ATCC, ATCC® HTB-96™) cell line was grown in DMEM medium supplemented with 10% fetal bovine serum at 37° C. in a humidified atmosphere at 5% CO2.
as §3
The U2OS cell line was treated with DMSO or 100, 200 or 400 μM of astaxanthin for 72 hours and cell numbers were counted.

[4] = test system: Mouse adrenocortical Y1 cell line; assay: MTT assay of Y1 cell viability; conditions: Y1 cells, 40 μM astaxanthin, 48 hours
Procedure: as §5, §6, §7, §1

Compound: CC1=C(/C=C/C(C)=C/C=C/C(C)=C/C=C/C=C(C)/C=C/C=C(C)/C=C/C2=C(C)C(=O)[C@@H](O)CC2(C)C)C(C)(C)C[C@H](O)C1=O [astaxanthin, Astaxanthin]
- viability of U87MG cells (MTT) (Human U87MG cell line [1]): reduced
- U87MG cell growth (cell number) (Human U87MG cell line [2]): inhibited U87MG cell growth in a dose-dependent and time-dependent manner
- M059K cell growth (cell number) (M059K cell line): also inhibited M059K
- number of Y1 cells compared with control (DMSO treated) group [3]: reduced
- U2OS cell growth (cell number) (Human U2OS cell line): inhibited U2OS cell growth in a dose-dependent manner
- OD570 (MTT, cell viability) compared with DMSO treated group [4]: reduced
